Several values for one entry are separate records, joined by “and”; a condition that tells them apart may be missing. Equal values may be shown once.

This test has as its system cos-7 cells. Description: DNA transfection: luciferase expression relative to Lipofectamine 2000. The class given is cell-based. As to conditions: for Luciferase expression as a percentage of that achieved using Lipofectamine 2000: 300 ng Luciferase DNA per well, luciferase assay after 48 hours; for luciferase expression (second part of table, values relative to LIPO2000): 300 ng of DNA per well. Put shortly:
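cos-7 cells were transfected with 300 ng/well luciferase DNA complexed with lipid at ratios from 2.5 to 25 w/w. Bright-Glo luminescence was read after 48 hours and converted to ng luciferase by standard curve. Data are percent of the Lipofectamine 2000 control (2.5 w/w).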

As to `CCCCCCCCCCCCOC(=O)CCN(CCC(=O)OCCCCCCCCCCCC)CCN1CCCC1` [LD76], the “Luciferase expression as a percentage of that achieved using Lipofectamine 2000” value (from here on “Luciferase expression as a percentage”) amounted to 0.1% (lipid/DNA 2.5 w/w); 0.1% (lipid/DNA 5 w/w); 0.2% (lipid/DNA 10 w/w); 0.3% (lipid/DNA 15 w/w); 0.2% (lipid/DNA 20 w/w); 0.4% (lipid/DNA 25 w/w).

Take `CCCCCCCCCCCCOC(=O)CCN(CCC(=O)OCCCCCCCCCCCC)CCC1CCCN1C` (stereo not drawn) [LD77]: the “Luciferase expression as a percentage” value by setting is: (lipid/DNA 2.5 w/w) 0.1%; (lipid/DNA 5 w/w) 0.1%; (lipid/DNA 10 w/w) 6.9%; (lipid/DNA 15 w/w) 11.1%; (lipid/DNA 20 w/w) 6.4%; (lipid/DNA 25 w/w) 2.9%.

Regarding `CCCCCCCCCCCCOC(=O)CCN(CCC(=O)OCCCCCCCCCCCC)C(C)CN(C)C` (stereo not drawn) [LD79], the “Luciferase expression as a percentage” value reads like this: (lipid/DNA 2.5 w/w) 0.1%; (lipid/DNA 5 w/w) 0.1%; (lipid/DNA 10 w/w) 0.1%; (lipid/DNA 15 w/w) 0.2%; (lipid/DNA 20 w/w) 0.3%; (lipid/DNA 25 w/w) 0.2%.

`CCCCCCCCCCCCOC(=O)CCN(CCCN(C)C)CCC(=O)OCCCCCCCCCCCC` [LD80]: the “Luciferase expression as a percentage” value is, setting by setting: (lipid/DNA 2.5 w/w) 0.1%; (lipid/DNA 5 w/w) 0.1%; (lipid/DNA 10 w/w) 3.7%; (lipid/DNA 15 w/w) 6.5%; (lipid/DNA 20 w/w) 7.1%; (lipid/DNA 25 w/w) 2.1%.

As for `CCCCCCCCCCCCOC(=O)CCN(CCCN(CC)CC)CCC(=O)OCCCCCCCCCCCC` [LD81], the “Luciferase expression as a percentage” value (lipid/DNA 2.5 w/w) amounted to 0.1%; the “Luciferase expression as a percentage” value (lipid/DNA 5 w/w) came to 0.1%; the “Luciferase expression as a percentage” value (lipid/DNA 10 w/w) is recorded as 15.2%; the “Luciferase expression as a percentage” value (lipid/DNA 15 w/w) is given as 7.6%; the “Luciferase expression as a percentage” value (lipid/DNA 20 w/w) came to 5.4%; the “Luciferase expression as a percentage” value (lipid/DNA 25 w/w) stood at 2.3%.

On to `CCCCCCCCCCCCOC(=O)CCN(CCC(=O)OCCCCCCCCCCCC)CCN1CCCCC1` [LD82], for which the “Luciferase expression as a percentage” value (lipid/DNA 2.5 w/w) worked out at 0.1%; the “Luciferase expression as a percentage” value (lipid/DNA 5 w/w) was found to be 0.1%; the “Luciferase expression as a percentage” value (lipid/DNA 10 w/w) is 0.2%; the “Luciferase expression as a percentage” value (lipid/DNA 15 w/w) stood at 0.3%; the “Luciferase expression as a percentage” value (lipid/DNA 20 w/w) turned out to be 0.4%; the “Luciferase expression as a percentage” value (lipid/DNA 25 w/w) worked out at 0.7%.

Turning to `CCCCCCCCCCCCOC(=O)CCN(CCC(=O)OCCCCCCCCCCCC)CCN(CCO)CCO` [LD86], the “Luciferase expression as a percentage” value by setting is: (lipid/DNA 10 w/w) 29.6%; (lipid/DNA 15 w/w) 16.0%.

Turning to `CCCCCCCCCCCCOC(=O)CCN(CCCN(CCO)CCO)CCC(=O)OCCCCCCCCCCCC` [LD87], under “lipid/DNA 10 w/w”, the “Luciferase expression as a percentage” value is 53.9% and the “luciferase expression (second part of table, values relative to LIPO2000)” value turned out to be 53.9. Also, for the setting “lipid/DNA 15 w/w”, the “Luciferase expression as a percentage” value came to 43.3% and the “luciferase expression (second part of table, values relative to LIPO2000)” value amounted to 43.3.

In the case of `CCCCCCCCCCCCOC(=O)CCN(CCC(=O)OCCCCCCCCCCCC)CCN1CCOCC1` [LD90], the “Luciferase expression as a percentage” value is, setting by setting: (lipid/DNA 2.5 w/w) 0.5% and 0.4%; (lipid/DNA 5 w/w) 0.4%; (lipid/DNA 10 w/w) 0.4%; (lipid/DNA 15 w/w) 0.6% and 0.4%; (lipid/DNA 20 w/w) 0.4% and 0.5%; (lipid/DNA 25 w/w) 0.4% and 0.5%.

Consider `CCCCCCCCCCCCOC(=O)CCN(CCCN1CCOCC1)CCC(=O)OCCCCCCCCCCCC` [LD91], for which the “Luciferase expression as a percentage” value is, setting by setting: (lipid/DNA 2.5 w/w) 0.2%; (lipid/DNA 5 w/w) 0.2%; (lipid/DNA 10 w/w) 0.2%; (lipid/DNA 15 w/w) 0.2%; (lipid/DNA 20 w/w) 0.2%; (lipid/DNA 25 w/w) 0.2%.

Consider `CCCCCCCCCCCCOC(=O)CCN(CCCn1ccnc1)CCC(=O)OCCCCCCCCCCCC` [LD93], for which the “Luciferase expression as a percentage” value is, setting by setting: (lipid/DNA 2.5 w/w) 1.8%; (lipid/DNA 5 w/w) 4.2%; (lipid/DNA 10 w/w) 3.9%; (lipid/DNA 15 w/w) 24.6%; (lipid/DNA 20 w/w) 15.8%; (lipid/DNA 25 w/w) 10.8%.

As for `CCCCCCCCCCCCOC(=O)CCN(CCC(=O)OCCCCCCCCCCCC)CCc1c[nH]cn1` [LD94], the “Luciferase expression as a percentage” value runs as follows: (lipid/DNA 2.5 w/w) 1.5%; (lipid/DNA 5 w/w) 5.9%; (lipid/DNA 10 w/w) 2.0%; (lipid/DNA 15 w/w) 8.5%; (lipid/DNA 20 w/w) 9.2%; (lipid/DNA 25 w/w) 7.3%.

With `CCCCCCCCCCCCOC(=O)CCN(C)CCN(CCC(=O)OCCCCCCCCCCCC)CCC(=O)OCCCCCCCCCCCC` [LD95], the “Luciferase expression as a percentage” value is, setting by setting: (lipid/DNA 2.5 w/w) 1.2%; (lipid/DNA 5 w/w) 19.5%; (lipid/DNA 10 w/w) 3.6%; (lipid/DNA 15 w/w) 9.1%; (lipid/DNA 20 w/w) 9.4%; (lipid/DNA 25 w/w) 5.9%.

For the compound `CCCCCCCCCCCCOC(=O)CCN(CCO)CCN(CCO)CCC(=O)OCCCCCCCCCCCC` [LD103], the “Luciferase expression as a percentage” value runs as follows: (lipid/DNA 2.5 w/w) 11.6%; (lipid/DNA 5 w/w) 17.2%; (lipid/DNA 10 w/w) 24.4%; (lipid/DNA 15 w/w) 27.1%; (lipid/DNA 20 w/w) 12.3%; (lipid/DNA 25 w/w) 6.6%.

Source of the values: patent US9006487B2, “Amine-containing lipids and uses thereof” (Massachusetts Institute of Technology, priority 2005, dated 2015).
